Like-named read-outs stand apart in the source and are kept apart here. Marks after values point to notes of the source that are not given here. Values belong to the compound of their own block, whether it stands above or below them.
How the values were obtained:
[1] = test system: Caco‐2 cell monolayers; assay: Metformin apparent permeability across polarised Caco-2 cell monolayers with and without inhibitors; type: in vitro ADME; settings: therapeutic intestinal concentrations of inhibitor
Procedure: (§1) Caco‐2 cells between passage numbers 50–60 were used for experiments. Cells were seeded in cell culture medium (consisting of DMEM supplemented with 10% (w/v) fetal bovine serum, 2 mmol/L L‐glutamine, 1% (v/v) nonessential amino acids, 50 U/mL penicillin and 50 μg/mL streptomycin) onto Millicell‐96 multiwell insert plates at 1 × 10^5 cells/cm^2 and cultured at 37°C in an atmosphere of 5% CO2 with a relative humidity of 95 %. Media was changed every two or three days and plates were used for transport studies on day 20 postseeding. Cell monolayers were washed twice with prewarmed (37°C) transport buffer (HBSS containing 25 mmol/L HEPES and 4.45 mmol/L glucose, pH 7.4) for basolateral compartments and prewarmed MES‐transport buffer (HBSS containing 10 mmol/L MES and 4.45 mmol/L glucose, pH 6.5) for apical compartments. […] Transport buffer or MES‐transport buffer containing DMSO or test inhibitor was added to the corresponding receiver compartments. Donor and receiver solutions contained a final DMSO concentration of ≤1 % (v/v). […] The amount of lucifer yellow appearing in the receiver compartments was quantified on a fluorescence plate reader and used to calculate permeation across the cell monolayer.

[2] = Perpetrator drug plasma Cmax in clinical interaction studies with metformin; type: in vivo, human; settings: f u × C max
[3] = target: T1, multidrug and toxin extrusion protein (MATE) 1 (SLC47A1) (Homo sapiens, UniProt Q96FL8); parameters: method as in Kusuhara et al. 2011; Ito et al. 2012; Müller et al. 2015; settings: ref Kusuhara et al. 2011; Ito et al. 2012; Müller et al. 2015; cited from earlier work
T1 sequence (Q96FL8 1-570): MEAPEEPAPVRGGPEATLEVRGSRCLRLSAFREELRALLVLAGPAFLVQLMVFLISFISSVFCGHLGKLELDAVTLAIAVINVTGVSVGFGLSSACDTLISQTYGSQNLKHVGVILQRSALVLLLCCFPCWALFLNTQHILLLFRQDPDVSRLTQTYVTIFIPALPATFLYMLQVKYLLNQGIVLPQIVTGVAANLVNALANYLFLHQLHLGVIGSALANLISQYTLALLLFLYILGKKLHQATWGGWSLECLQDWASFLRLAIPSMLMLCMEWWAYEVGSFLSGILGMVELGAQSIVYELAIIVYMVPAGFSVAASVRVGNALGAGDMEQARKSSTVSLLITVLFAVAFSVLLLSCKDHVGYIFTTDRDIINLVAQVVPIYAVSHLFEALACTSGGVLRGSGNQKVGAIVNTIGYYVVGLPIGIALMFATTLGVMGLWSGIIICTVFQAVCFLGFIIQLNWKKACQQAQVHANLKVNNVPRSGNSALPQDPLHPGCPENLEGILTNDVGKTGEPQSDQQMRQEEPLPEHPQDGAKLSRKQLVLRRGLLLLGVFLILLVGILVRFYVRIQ

[4] = cited from earlier work
[5] = cited from earlier work; for increase in the plasma exposure (AUC) of metformin in clinical DDIs: ref Somogyi et al. 1987, Wang et al. 2008, Grün et al. 2013, Müller et al. 2015, Kusuhara et al. 2011
[6] = target: T2, human organic cation transporter (OCT) 1 (SLC22A1) (Homo sapiens, UniProt O15245); assay: cell-based
T2 sequence (O15245 1-554): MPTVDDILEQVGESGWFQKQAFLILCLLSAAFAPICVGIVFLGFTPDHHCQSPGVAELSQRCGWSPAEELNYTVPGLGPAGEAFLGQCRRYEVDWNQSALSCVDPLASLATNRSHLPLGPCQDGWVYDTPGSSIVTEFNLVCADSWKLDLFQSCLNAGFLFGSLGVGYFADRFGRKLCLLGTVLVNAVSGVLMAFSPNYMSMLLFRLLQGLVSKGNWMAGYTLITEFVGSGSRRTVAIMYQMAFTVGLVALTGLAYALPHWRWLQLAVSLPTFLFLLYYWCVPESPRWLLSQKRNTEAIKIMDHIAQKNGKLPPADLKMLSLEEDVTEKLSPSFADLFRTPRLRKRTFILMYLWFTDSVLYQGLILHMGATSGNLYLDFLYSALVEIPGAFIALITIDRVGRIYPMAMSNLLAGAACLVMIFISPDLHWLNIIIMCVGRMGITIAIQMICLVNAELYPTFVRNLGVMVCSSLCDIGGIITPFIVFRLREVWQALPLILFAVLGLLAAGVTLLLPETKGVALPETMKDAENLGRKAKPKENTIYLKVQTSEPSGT

[7] = read-out: [C max] mean steady-state total plasma concentration, cited from earlier work
[8] = target: T1, multidrug and toxin extrusion protein (MATE) 1 (SLC47A1); assay: In vitro SLC transporter inhibition: MATE1-mediated [14C]-metformin uptake; type: cell-based
[9] = Metformin apparent permeability across polarised Caco-2 cell monolayers with and without inhibitors; type: in vitro ADME; settings: human, Caco-2, pH 6.5
Procedure: as §1

[10] = Metformin human mass balance and renal clearance; type: in vivo
[11] = target: T1, multidrug and toxin extrusion protein (MATE) 1 (SLC47A1); settings: MATE1-mediated metformin uptake, 1.5 min, 37°C; ±SE from fitting
[12] = target: MATE2‐K (SLC47A2) (Homo sapiens, UniProt Q86VL8); settings: MATE2-K-mediated metformin uptake, 1.5 min, 37°C; ±SE from fitting
[13] = oral metformin human mass balance, average; ref Pentikäinen et al. 1979; Tucker et al. 1981; Kusuhara et al. 2011; cited from earlier work
[14] = test system: Mate1; parameters: method as in Tsuda et al. 2009a; settings: intravenous administration; ref Tsuda et al. 2009a; cited from earlier work
[15] = test system: Oct1/2; parameters: method as in Higgins et al. 2012; settings: oral administration; ref Higgins et al. 2012; cited from earlier work
[16] = first-listed (or only) clinical study

Sequence of MATE2‐K (SLC47A2) (Q86VL8 1-566 isoform Q86VL8-3): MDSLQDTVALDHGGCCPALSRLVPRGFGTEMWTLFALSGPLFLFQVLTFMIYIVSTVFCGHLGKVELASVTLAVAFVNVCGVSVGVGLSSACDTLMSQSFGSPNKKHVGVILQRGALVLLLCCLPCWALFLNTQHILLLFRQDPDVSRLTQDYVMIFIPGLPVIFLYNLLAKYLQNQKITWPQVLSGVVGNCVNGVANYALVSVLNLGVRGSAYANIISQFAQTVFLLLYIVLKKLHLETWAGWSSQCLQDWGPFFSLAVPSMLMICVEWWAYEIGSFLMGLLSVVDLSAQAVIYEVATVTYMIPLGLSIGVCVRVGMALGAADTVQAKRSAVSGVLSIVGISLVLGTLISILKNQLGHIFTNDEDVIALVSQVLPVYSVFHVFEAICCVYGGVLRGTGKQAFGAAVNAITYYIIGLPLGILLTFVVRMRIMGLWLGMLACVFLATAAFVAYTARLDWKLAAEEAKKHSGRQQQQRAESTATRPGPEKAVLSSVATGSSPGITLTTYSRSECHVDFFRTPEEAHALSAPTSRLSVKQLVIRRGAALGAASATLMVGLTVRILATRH

SMILES: CCc1nc(N)nc(N)c1-c1ccc(Cl)cc1 [Pyrimethamine, pyrimethamine]
- MATE1 K i ([8]; equates to IC50 (probe ≪≪ Km, assuming competitive inhibition)): 0.131 µmol/L
- IC50 (≅K i) values MATE1 ([8]; probe [14C]-metformin 100 μmol/L, 1.5 min, mean ± SD of three experiments): 0.131 ± 0.0401 µmol/L
- effect on enhancing metformin absorptive permeability across Caco‐2 cells [1]: absence of an effect
- [C max free] [2, 16]: 0.298 µmol/L
- mode of inhibition of MATE1 [3]: competitive inhibitors
- increase in the plasma exposure (AUC) of metformin in clinical DDIs [5]: < 2 fold
- IC50 [6]: 4.46 ± 0.77 µM
- Cmax ([7]; pyrimethamine 50 mg, study with metformin 250 mg, ref Kusuhara et al. (2011)): 2.29 µM

SMILES: CNC(=C[N+](=O)[O-])NCCSCc1csc(CN(C)C)n1 [nizatidine]
- effect on metformin AUC in clinical interaction study ([5]; ref Morrissey et al. 2016): did not increase metformin AUC

Continued, in another order:

- effect on enhancing metformin absorptive permeability across Caco‐2 cells [1]: absence of an effect
- [C max free] [2, 16]: 7.68 µmol/L
- [C max free] ([2]; second-listed clinical study): 4.08 µmol/L
- IC50 [6]: 275 ± 32.2 µM
SMILES: CN/C(=N/CCSCc1nc[nH]c1C)NC#N [Cimetidine, cimetidine]
- mode of inhibition of MATE1 [3]: competitive inhibitors
- f u (fraction unbound) ([4]; ref Somogyi and Gugler (1983)): 0.80 ^a
- increase in the plasma exposure (AUC) of metformin in clinical DDIs [5]: < 2 fold
- Cmax ([7]; cimetidine 400 mg, first value, study with metformin 250 mg, ref Somogyi et al. (1987)): 9.6 µM
- Cmax ([7]; cimetidine 400 mg, second value, study with metformin 500 mg, ref Wang et al. (2008)): 5.1 µM

- effect on enhancing metformin absorptive permeability across Caco‐2 cells [1]: absence of an effect
- [C max free] [2, 16]: 7.84 µmol/L
- [C max free] ([2]; second-listed clinical study): 4.26 µmol/L
SMILES: COc1cc(Cc2cnc(N)nc2N)cc(OC)c1OC [Trimethoprim, trimethoprim]
- f u (fraction unbound) ([4]; ref Bactrim and Daraprim drug labels (Drugs@FDA database)): 0.56
- increase in the plasma exposure (AUC) of metformin in clinical DDIs [5]: < 2 fold

- Papp A→B at 90 min ([9]; read-out: Papp A‐B (apical to basolateral)): ~0.5 ×10⁻⁶ cm/s
- Papp B→A at 90 min ([9]; read-out: Papp B‐A (basolateral to apical)): ~0.5 ×10⁻⁶ cm/s
- fraction excreted value, ƒe, renal active transport ([10]; derived from intravenous administration of metformin): 0.66
- fraction excreted value, ƒe, renal active transport ([10]; derived from oral administration of metformin): 0.39
- K m [12]: 2986 ± 817 µmol/L
- V max [12]: 32147 ± 3401 pmol/min/mg protein
SMILES: CN(C)C(=N)N=C(N)N [metformin, Metformin]
- K m [11]: 4.565 ± 0.903 mM
- V max [11]: 141000 ± 12283 pmol/min/mg protein
- share of the dose eliminated in urine [13]: 52%
- increase in metformin AUC in Mate1(−/−) null mice compared with wildtype [14]: 4.2 fold
- increase in metformin AUC in Oct1/2(−/−) mice [15]: 2.9 fold
